Tests used:
HsCDK2/cyclin A = HsCDK2/cyclin A (Homo sapiens, UniProt P24941); experiment: Radiometric Flashplate potency assay, HsCDK2/cyclin A; assay type: biochemical; settings: ratio of IC50 values
Method: For compound potency determinations, a radiometric 96-well Flashplate assay (PerkinElmer) was adopted. Compounds were solubilized in DMSO at a top concentration of 3 mM and serially diluted to achieve 10-point titration of final assay concentrations from 30 μM to 0.3 nM with a final DMSO concentration of 1% (v/v). The reaction mixtures contained 1 μM biotinylated GSP2 substrate, 1 μM ATP, 3.7 KBq/well [γ-33P]-ATP and 2.5 nM TbGSK3 in the TbGSK3 kinase assay buffer. GSK3 inhibitors were screened for selectivity assessment also against HsGSK3β. For HsGSK3 assay, the reaction mixes contained 1 μM biotinylated GSP2 substrate, 2 μM ATP, 7.4 KBq/well [γ-33P]-ATP and 15 nM HsGSK3β in the TbGSK3 kinase assay buffer (25 mM Tris-HCl, pH 7.5, 10 mM MgCl2, 5 mM DTT, 0.02% CHAPS, 2 U/mL heparin). For HsCDK2/cyclin A assay, the reaction mixtures contained 1 mM CDK5 biotinylated peptide substrate (Biotin-C6-PKTPKKAKKL), 1 μM ATP, 7.4 KBq/well [γ-^33P]-ATP and 2 nM HsCDK2/cyclin A in the kinase assay buffer (50 mM Tris-HCl, pH 7.5, 10 mM MgCl2, 2 mM DTT, 100 mM NaCl, 0.2 mM EGTA, 0.02% (v/v) Brij35).
For the HsCDK2 assay, the analysis was performed using two different standards (GW8510 and staurosporine) tested respectively five times in a single run and 19 times in 2 independent runs. This implies that a difference of >0.3 in pIC50 can be considered statistically significant for this assay.

Src = target: T1, Src (Homo sapiens, UniProt P12931); experiment: Mammalian kinase profiling (DSTT panel); assay type: biochemical; settings: 10 μM; average percentage of remaining activity
T1 construct: purchased Division of Signal Transduction Therapy (DSTT), University of Dundee

EF2K = target: T2, EF2K (Homo sapiens, UniProt O00418); experiment: Mammalian kinase profiling (DSTT panel); assay type: biochemical; settings: 10 μM; average percentage of remaining activity
T2 construct: purchased Division of Signal Transduction Therapy (DSTT), University of Dundee

MNK2 = target: T3, MNK2 (Homo sapiens, UniProt Q9HBH9); experiment: Mammalian kinase profiling (DSTT panel); assay type: biochemical; settings: 10 μM; average percentage of remaining activity
T3 construct: purchased Division of Signal Transduction Therapy (DSTT), University of Dundee

MARK3 = target: T4, MARK3 (Homo sapiens, UniProt P27448); experiment: Mammalian kinase profiling (DSTT panel); assay type: biochemical; settings: 10 μM; average percentage of remaining activity
T4 construct: purchased Division of Signal Transduction Therapy (DSTT), University of Dundee

NEK6 = target: T5, NEK6 (Homo sapiens, UniProt Q9HC98); experiment: Mammalian kinase profiling (DSTT panel); assay type: biochemical; settings: 10 μM; average percentage of remaining activity
T5 construct: purchased Division of Signal Transduction Therapy (DSTT), University of Dundee

FGF-R1 = target: T6, FGF-R1 (Homo sapiens, UniProt P11362); experiment: Mammalian kinase profiling (DSTT panel); assay type: biochemical; settings: 10 μM; average percentage of remaining activity
T6 construct: purchased Division of Signal Transduction Therapy (DSTT), University of Dundee

P38b MAPK = target: T7, P38b MAPK (Homo sapiens, UniProt Q15759); experiment: Mammalian kinase profiling (DSTT panel); assay type: biochemical; settings: 10 μM; average percentage of remaining activity
T7 construct: purchased Division of Signal Transduction Therapy (DSTT), University of Dundee

PKC zeta = target: T8, PKC zeta (Homo sapiens, UniProt Q05513); experiment: Mammalian kinase profiling (DSTT panel); assay type: biochemical; settings: 10 μM; average percentage of remaining activity
T8 construct: purchased Division of Signal Transduction Therapy (DSTT), University of Dundee

TBK1 = target: T9, TBK1 (Homo sapiens, UniProt Q9UHD2); experiment: Mammalian kinase profiling (DSTT panel); assay type: biochemical; settings: 10 μM; average percentage of remaining activity
T9 construct: purchased Division of Signal Transduction Therapy (DSTT), University of Dundee

P38s MAPK = target: T10, P38s MAPK (Homo sapiens, UniProt O15264); experiment: Mammalian kinase profiling (DSTT panel); assay type: biochemical; settings: 10 μM; average percentage of remaining activity
T10 construct: purchased Division of Signal Transduction Therapy (DSTT), University of Dundee

CSK = target: T11, CSK (Homo sapiens, UniProt P41240); experiment: Mammalian kinase profiling (DSTT panel); assay type: biochemical; settings: 10 μM; average percentage of remaining activity
T11 construct: purchased Division of Signal Transduction Therapy (DSTT), University of Dundee

CHK1 = target: T12, CHK1 (Homo sapiens, UniProt O14757); experiment: Mammalian kinase profiling (DSTT panel); assay type: biochemical; settings: 10 μM; average percentage of remaining activity
T12 construct: purchased Division of Signal Transduction Therapy (DSTT), University of Dundee

[1] = tested on: bloodstream form T. b. brucei; experiment: Trypanosome proliferation assay (resazurin); assay type: cell-based; settings: Trypanosoma brucei, 72 h, concentration required to inhibit growth in culture by 50% over 72 h
Method: (§1) Measurement of inhibition of the proliferation of MRC5 (human lung fibroblast) cells and T. b. brucei bloodstream stage cells was performed using a modification of the cell viability assay previously described.[33] Compounds (50 μM to 0.5 nM) were incubated with 2 × 10^3 cells/well in 0.2 mL of the appropriate culture medium (MEM with 10% fetal bovine serum for MRC5 cells) in clear 96-well plates. Plates were incubated at 37 °C in the presence of 5% CO2 for 69 h. Resazurin was then added to a final concentration of 50 μM, and plates were incubated as above for a further 4 h before being read on a BioTek flx800 fluorescent plate reader.

endogenous TbGSK3 short = settings: parasite cell extracts; cited from earlier work
MRC5 cells = experiment: MRC5 proliferation assay (resazurin); assay type: cell-based, human; settings: T. b. brucei versus MRC5 EC50
Method: as §1

AMPK = experiment: Mammalian kinase profiling (DSTT panel); assay type: biochemical, human; settings: 10 μM; average percentage of remaining activity
Method: To assess the selectivity of the aminopyrazole inhibitors, remaining activity at 10 μM concentration was measured for compounds 4f, 4m, and 4y against a panel of 80 human PKs and for compound 9g against 124 human PKs. […] Compound 4m inhibited only two PKs, namely GSK3β and CDK2, at more than 80%.
Selected compounds were screened against a panel of mammalian kinases routinely run by the Division of Signal Transduction Therapy (DSTT) at the University of Dundee in duplicate at 10 μM.[32] Enzymes included in the panel and assay conditions are reported in the literature. All biochemical assays are run below the Km^app for the ATP for each enzyme, allowing comparison of inhibition across the panel.

PAK6 = target: T13, PAK6 (Homo sapiens, UniProt Q9NQU5); experiment: Mammalian kinase profiling (DSTT panel); assay type: biochemical; settings: 10 μM; average percentage of remaining activity
T13 construct: purchased Division of Signal Transduction Therapy (DSTT), University of Dundee

GSK3b = target: T14, GSK3b (Homo sapiens, UniProt P49841); experiment: Mammalian kinase profiling (DSTT panel); assay type: biochemical; settings: read-out: inhibition of GSK3β
T14 construct: purchased Division of Signal Transduction Therapy (DSTT), University of Dundee

Aurora B = target: T15, Aurora B (Homo sapiens, UniProt Q96GD4); experiment: Mammalian kinase profiling (DSTT panel); assay type: biochemical; settings: 10 μM; average percentage of remaining activity
T15 construct: purchased Division of Signal Transduction Therapy (DSTT), University of Dundee

MST4 = target: T16, MST4 (Homo sapiens, UniProt Q9P289); experiment: Mammalian kinase profiling (DSTT panel); assay type: biochemical; settings: 10 μM; average percentage of remaining activity
T16 construct: purchased Division of Signal Transduction Therapy (DSTT), University of Dundee

IKKb = target: T17, IKKb (Homo sapiens, UniProt O14920); experiment: Mammalian kinase profiling (DSTT panel); assay type: biochemical; settings: 10 μM; average percentage of remaining activity
T17 construct: purchased Division of Signal Transduction Therapy (DSTT), University of Dundee

CDK2 = target: T18, CDK2 (Homo sapiens, UniProt P24941); experiment: Mammalian kinase profiling (DSTT panel); assay type: biochemical
T18 construct: purchased Division of Signal Transduction Therapy (DSTT), University of Dundee

RSK2 = target: T19, RSK2 (Homo sapiens, UniProt P51812); experiment: Mammalian kinase profiling (DSTT panel); assay type: biochemical; settings: 10 μM; average percentage of remaining activity
T19 construct: purchased Division of Signal Transduction Therapy (DSTT), University of Dundee

PRK2 = target: T20, PRK2 (Homo sapiens, UniProt Q16513); experiment: Mammalian kinase profiling (DSTT panel); assay type: biochemical; settings: 10 μM; average percentage of remaining activity
T20 construct: purchased Division of Signal Transduction Therapy (DSTT), University of Dundee

PKBa = target: T21, PKBa (Homo sapiens, UniProt P31749); experiment: Mammalian kinase profiling (DSTT panel); assay type: biochemical; settings: average percentage of remaining activity, read-out: PKBa activity compared to the control
T21 construct: purchased Division of Signal Transduction Therapy (DSTT), University of Dundee

T2 sequence (O00418 whole entry): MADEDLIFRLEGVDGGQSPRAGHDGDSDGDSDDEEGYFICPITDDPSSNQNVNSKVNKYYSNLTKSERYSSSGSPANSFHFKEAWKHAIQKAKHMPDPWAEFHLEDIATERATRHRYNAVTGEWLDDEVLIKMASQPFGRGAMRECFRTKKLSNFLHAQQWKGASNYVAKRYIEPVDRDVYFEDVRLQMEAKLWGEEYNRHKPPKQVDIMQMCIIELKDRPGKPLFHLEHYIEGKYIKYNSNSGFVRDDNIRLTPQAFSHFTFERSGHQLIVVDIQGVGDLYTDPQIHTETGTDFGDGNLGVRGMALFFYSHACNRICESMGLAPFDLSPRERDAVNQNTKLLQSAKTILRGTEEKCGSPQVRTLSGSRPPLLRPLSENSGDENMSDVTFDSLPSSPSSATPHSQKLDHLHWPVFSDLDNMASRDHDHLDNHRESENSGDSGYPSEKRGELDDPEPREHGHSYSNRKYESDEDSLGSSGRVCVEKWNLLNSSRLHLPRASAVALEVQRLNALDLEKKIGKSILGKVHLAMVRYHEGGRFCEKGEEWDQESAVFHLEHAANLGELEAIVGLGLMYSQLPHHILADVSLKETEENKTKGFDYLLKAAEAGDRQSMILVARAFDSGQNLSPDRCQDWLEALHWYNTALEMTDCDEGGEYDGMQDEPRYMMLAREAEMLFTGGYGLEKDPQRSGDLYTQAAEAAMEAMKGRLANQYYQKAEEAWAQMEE
T17 sequence (O14920 whole entry): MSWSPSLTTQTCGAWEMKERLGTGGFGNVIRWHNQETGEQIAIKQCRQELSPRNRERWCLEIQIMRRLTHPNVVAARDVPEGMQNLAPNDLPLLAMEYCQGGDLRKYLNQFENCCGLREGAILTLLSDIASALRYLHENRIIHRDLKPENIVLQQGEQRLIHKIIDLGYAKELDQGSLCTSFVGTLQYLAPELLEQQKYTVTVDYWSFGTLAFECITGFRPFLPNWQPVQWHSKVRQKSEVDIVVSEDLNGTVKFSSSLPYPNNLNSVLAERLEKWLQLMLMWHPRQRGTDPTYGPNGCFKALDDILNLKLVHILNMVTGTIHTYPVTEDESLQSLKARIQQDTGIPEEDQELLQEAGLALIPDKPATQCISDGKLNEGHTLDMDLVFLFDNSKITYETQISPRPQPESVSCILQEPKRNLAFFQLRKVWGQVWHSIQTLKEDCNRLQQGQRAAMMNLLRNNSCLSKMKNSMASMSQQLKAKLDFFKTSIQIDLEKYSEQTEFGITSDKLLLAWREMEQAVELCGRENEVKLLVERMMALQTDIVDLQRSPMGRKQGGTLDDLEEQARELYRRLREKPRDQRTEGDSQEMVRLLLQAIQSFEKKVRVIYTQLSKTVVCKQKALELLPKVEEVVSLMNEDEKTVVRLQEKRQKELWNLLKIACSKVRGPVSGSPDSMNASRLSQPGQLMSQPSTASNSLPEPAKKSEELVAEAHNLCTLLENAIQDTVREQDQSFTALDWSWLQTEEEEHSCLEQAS
T9 sequence (Q9UHD2 whole entry): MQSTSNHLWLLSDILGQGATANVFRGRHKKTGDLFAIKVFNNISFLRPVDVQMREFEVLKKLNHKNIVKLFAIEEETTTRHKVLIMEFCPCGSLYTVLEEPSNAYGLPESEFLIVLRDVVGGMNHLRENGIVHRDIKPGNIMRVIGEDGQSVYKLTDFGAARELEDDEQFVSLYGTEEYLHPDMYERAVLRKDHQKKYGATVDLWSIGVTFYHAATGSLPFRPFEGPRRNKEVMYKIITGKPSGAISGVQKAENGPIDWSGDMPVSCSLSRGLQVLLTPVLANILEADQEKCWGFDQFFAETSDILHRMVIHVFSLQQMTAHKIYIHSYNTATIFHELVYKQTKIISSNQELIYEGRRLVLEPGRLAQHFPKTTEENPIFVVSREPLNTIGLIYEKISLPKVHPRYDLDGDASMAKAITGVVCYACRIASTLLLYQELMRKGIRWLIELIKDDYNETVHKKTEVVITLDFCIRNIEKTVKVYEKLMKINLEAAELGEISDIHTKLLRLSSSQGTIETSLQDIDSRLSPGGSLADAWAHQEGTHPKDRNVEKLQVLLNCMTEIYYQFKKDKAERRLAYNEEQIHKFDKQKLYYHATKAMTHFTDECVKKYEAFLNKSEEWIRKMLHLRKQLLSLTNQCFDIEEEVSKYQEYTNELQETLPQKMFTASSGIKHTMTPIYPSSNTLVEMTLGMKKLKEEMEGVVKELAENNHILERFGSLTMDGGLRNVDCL
T15 sequence (Q96GD4 whole entry): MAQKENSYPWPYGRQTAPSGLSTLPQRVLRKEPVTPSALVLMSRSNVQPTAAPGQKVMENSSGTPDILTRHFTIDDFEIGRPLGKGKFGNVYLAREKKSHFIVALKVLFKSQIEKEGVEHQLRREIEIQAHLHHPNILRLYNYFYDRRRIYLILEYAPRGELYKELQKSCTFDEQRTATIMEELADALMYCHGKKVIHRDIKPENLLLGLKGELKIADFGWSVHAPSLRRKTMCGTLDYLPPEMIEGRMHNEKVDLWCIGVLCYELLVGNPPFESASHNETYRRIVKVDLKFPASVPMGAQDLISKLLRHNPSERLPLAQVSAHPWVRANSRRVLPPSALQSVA
T13 sequence (Q9NQU5 whole entry): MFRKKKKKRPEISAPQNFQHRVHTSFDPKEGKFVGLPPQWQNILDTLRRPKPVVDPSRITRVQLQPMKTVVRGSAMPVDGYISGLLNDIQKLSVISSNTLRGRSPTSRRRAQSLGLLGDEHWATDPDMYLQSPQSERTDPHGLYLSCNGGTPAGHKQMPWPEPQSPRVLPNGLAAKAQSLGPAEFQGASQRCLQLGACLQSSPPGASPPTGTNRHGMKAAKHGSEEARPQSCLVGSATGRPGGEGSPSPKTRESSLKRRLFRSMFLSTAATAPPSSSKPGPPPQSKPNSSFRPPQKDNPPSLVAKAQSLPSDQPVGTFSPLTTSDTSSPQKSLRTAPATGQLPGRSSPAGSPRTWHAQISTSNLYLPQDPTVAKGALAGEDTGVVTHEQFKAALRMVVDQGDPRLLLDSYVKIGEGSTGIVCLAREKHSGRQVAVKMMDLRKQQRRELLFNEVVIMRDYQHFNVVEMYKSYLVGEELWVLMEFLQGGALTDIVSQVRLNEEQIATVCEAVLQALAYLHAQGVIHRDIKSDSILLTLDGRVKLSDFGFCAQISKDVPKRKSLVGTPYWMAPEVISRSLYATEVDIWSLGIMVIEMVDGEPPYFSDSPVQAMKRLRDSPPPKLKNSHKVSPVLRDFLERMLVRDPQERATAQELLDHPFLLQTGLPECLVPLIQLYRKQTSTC
T10 sequence (O15264 whole entry): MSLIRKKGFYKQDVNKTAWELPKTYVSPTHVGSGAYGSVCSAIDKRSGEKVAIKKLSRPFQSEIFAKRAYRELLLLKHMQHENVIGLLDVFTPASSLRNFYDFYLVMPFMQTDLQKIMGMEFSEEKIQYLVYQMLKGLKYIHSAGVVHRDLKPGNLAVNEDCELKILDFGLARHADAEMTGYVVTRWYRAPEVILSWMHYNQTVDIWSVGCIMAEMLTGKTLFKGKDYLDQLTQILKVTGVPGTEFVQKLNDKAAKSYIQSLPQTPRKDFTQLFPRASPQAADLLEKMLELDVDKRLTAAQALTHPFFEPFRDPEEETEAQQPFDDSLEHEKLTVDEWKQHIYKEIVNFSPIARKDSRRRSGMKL
T11 sequence (P41240 whole entry): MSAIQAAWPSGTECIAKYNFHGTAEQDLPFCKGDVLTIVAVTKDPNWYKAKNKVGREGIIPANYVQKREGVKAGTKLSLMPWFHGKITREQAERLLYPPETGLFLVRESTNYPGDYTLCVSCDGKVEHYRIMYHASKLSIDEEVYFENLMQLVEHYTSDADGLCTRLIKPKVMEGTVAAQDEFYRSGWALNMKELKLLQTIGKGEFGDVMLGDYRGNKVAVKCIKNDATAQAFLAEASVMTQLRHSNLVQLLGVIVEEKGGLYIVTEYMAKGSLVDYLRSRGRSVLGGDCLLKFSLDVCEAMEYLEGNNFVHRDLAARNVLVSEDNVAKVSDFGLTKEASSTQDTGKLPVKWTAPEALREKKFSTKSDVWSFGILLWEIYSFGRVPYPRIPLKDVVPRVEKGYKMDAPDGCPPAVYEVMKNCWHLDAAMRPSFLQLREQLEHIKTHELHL
T3 sequence (Q9HBH9 whole entry): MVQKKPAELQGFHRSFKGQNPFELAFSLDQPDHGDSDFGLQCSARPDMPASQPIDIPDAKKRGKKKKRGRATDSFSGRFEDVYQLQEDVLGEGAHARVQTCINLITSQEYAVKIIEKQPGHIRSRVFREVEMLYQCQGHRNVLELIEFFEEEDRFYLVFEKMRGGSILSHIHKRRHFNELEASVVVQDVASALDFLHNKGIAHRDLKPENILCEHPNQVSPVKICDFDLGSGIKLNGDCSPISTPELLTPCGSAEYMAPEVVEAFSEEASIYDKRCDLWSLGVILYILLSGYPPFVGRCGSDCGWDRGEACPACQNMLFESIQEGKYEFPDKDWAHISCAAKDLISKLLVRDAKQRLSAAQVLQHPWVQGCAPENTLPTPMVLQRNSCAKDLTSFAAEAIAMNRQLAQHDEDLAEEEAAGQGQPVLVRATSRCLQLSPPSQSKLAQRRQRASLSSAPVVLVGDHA
T16 sequence (Q9P289 whole entry): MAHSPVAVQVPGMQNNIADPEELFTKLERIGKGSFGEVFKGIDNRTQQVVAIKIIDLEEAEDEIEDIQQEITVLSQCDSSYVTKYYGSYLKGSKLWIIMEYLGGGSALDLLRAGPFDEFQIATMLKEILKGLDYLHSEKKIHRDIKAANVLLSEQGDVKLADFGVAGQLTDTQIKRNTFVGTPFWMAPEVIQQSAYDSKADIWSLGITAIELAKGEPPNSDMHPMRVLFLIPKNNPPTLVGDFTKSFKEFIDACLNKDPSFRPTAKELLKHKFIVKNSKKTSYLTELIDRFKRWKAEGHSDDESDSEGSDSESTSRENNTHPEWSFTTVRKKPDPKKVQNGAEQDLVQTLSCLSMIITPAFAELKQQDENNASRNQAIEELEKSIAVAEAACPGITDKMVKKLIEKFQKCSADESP

Structure (SMILES) | Src activity compared to the control (Src) [%] | EF2K activity compared to the control (EF2K) [%] | MNK2 activity compared to the control (MNK2) [%] | MARK3 activity compared to the control (MARK3) [%] | NEK6 activity compared to the control (NEK6) [%] | FGF-R1 activity compared to the control (FGF-R1) [%] | PKC zeta activity compared to the control (PKC zeta) [%] | TBK1 activity compared to the control (TBK1) [%] | P38s MAPK activity compared to the control (P38s MAPK) [%] | CSK activity compared to the control (CSK) [%] | CHK1 activity compared to the control (CHK1) [%] | AMPK activity compared to the control (AMPK) [%] | PAK6 activity compared to the control (PAK6) [%] | Aurora B activity compared to the control (Aurora B) [%] | MST4 activity compared to the control (MST4) [%] | IKKb activity compared to the control (IKKb) [%] | other results
CO[C@H]1CC[C@H](NC(=O)c2n[nH]cc2NC(=O)c2ccccc2)CC1 [Compound 4f, 4-Benzamido-N-(4-methoxycyclohexyl)-1H-pyrazole-3-carboxamide] | 98 | 99 | 100 | 84 | 100 | 99 | 57 | 63 | 57 | 85 | 100 | – | – | – | – | – | ratio HsCDK2/TbGSK3 (HsCDK2/cyclin A): <1.6; P38b MAPK activity compared to the control (P38b MAPK): 74%
COc1cccc(OC)c1C(=O)Nc1c[nH]nc1C(=O)NC1CCC(OC)CC1 (stereo not drawn) [Compound 4m, 4-(2,6-Dimethoxybenzamido)-N-(4-methoxycyclohexyl)-1H-pyrazole-3-carboxamide] | – | – | – | – | – | – | – | – | – | – | – | 88 | 90 | 87 | 49 | 100 | EC50 [1]: < 1 µM; affinity for endogenous TbGSK3 short (endogenous TbGSK3 short): nanomolar affinity; selectivity over MRC5 cells (MRC5 cells): 60 fold; inhibition at 10 µM (GSK3b): > 80%; inhibition at 10 µM (CDK2): > 80%
CO[C@H]1CC[C@H](NC(=O)c2n[nH]cc2NC(=O)c2ccc(-c3ccccc3)o2)CC1 [Compound 4y, N-(4-Methoxycyclohexyl)-4-(5-phenylfuran-2-carboxamido)-1H-pyrazole-3-carboxamide] | 85 | 92 | 77 | 83 | 70 | 72 | 60 | 73 | 38 | 73 | 94 | 49 | 71 | 47 | 30 | 36 | RSK2 activity compared to the control (RSK2): 93%; PRK2 activity compared to the control (PRK2): 65%; remaining activity at 10 µM (PKBa): 86%
